According to patent publication US7244712B2, “Aminoglycoside antibiotics and methods of using same” (priority 2004, dated 2007):
Converted amounts (≈) assume the structure as drawn. “Also recorded” adds a separate entry of the source.

Columns and labels:
E. faecalis = assay: Antibacterial activity against E. faecalis; assay type: cell-based
[1] = system: E. coli S30 extract, containing 70S ribosomes; assay: In vitro protein translation (CAT mRNA, 35S methionine incorporation); assay type: biochemical; details: quantitation of gel bands, read-out: IC50, concentration producing 50% inhibition of translation
Protocol: Protein translation was performed from chloramphenicol acetyl transferase (CAT) mRNA. […] A commercial E. coli ribosomal suspension was supplemented with an E. coli extract containing the required elements for translation. These include translation factors, tRNAs, and aminoacyl tRNA synthases. Plasmid, T7 RNA polymerase and amino acids were added to the reaction mixture, and both transcription and translation steps were performed in the same vial. The effects of the aminoglycosides on the translation process were evaluated by measuring the incorporation of ^35S methionine in the translated chloramphenicol acetyl transferase protein.
In vitro translation was performed by using PROTEINscript™-PRO (Ambion) kit. […] Reaction mixtures contained appropriate concentrations of antibiotic (neomycin B, D- and L-neamine). The protein was translated from CAT mRNA, transcribed from control DNA template containing CAT gene under control of the T7 promotor. The product, ˜25 kDa chloramphenicol acetyl transferase, was labeled during translation with 1 μCi ^35S methionine (New England Nuclear) per reaction (no cold methionine was added).
Following the translation, the samples were analyzed by electrophoresis on 4-20% SDS mini-gels (Invitrogen) for 1.5 h at 120V. Gels were fixed with 40% methanol/10% acetic acid and exposed to Molecular Dynamics phosphoimager plates, which were read on a Personal FX phosphoimager (Bio-Rad) and quantitated using QuantityOne™ software.

[2] = system: E. coli (ATCC 25922) transformed with the plasmid pMM, bearing the APH(3')IIa gene; assay: Antibiotic activity disk assay, kanamycin/neomycin resistant E. coli; assay type: cell-based; details: FIG. 7B
Protocol: (§1) E. coli (ATCC 25922) and P. aeruginosa (ATCC 27853) (BD Bioscience) were inoculated in 3 mL of the medium 2 (U.S. Pharmacopia), containing 6 g peptone, 3 g yeast extract and 1.5 g beef extract per 1 L, pH 6.6, and were grown in a shaker for 6 h at 37° C. until an OD 560=0.6-0.8 was reached.
(§2) For the antibiotic disk assay, […] of each bacterial inoculum was mixed with 10 mL of melted agar (1.5% medium 2 agar, BD Bioscience) at 50-55° C. and poured onto 100 mm Petri dishes. Sterile Whatmann 3 MM 5 mm paper disks were soaked with antibiotic solutions and allowed to dry. The disks were positioned evenly on the surface of bacterial-inoculated solid agar and the plates were incubated at 37° C. for 1-2 days. MIC and bactericide index measurements.

E. coli (ATCC 25922) [3] = assay: Antibiotic activity disk assay, wild type E. coli; assay type: cell-based; details: FIG. 7A
Protocol: as §1, §2

S. aureus = assay: Antibacterial activity against S. aureus; assay type: cell-based
[4] = system: E. coli (ATCC 25922) transformed with pMM plasmid bearing APH(3')IIa; assay: MIC, kanamycin/neomycin resistant E. coli; assay type: cell-based; details: growth inhibition greater than 90%
Protocol: as §1
(§3) Minimal inhibitory concentrations (MIC) were measured according to the published method (Greenberg, W. A., Priestley, E. S., Sears, P. S., Alper, P. B., Rosenbohm, C., Hendrix, M., Hung, S.-C., & Wong, C.-H. (1999) J. Am. Chem. Soc. 121, 6527-6541). E. coli (ATCC 25922) (both wild type and pMM-transformed) and P. aeruginosa (ATCC 27853) were grown in medium 2 to an optical density OD 600 of 0.6-0.8. The inoculi were diluted to OD 600 ˜0.1 in medium 2 and 1 mL of the culture was placed in 13 mL test tubes. The desired concentrations of antibiotic were added from stock solutions. […] The absorbance at 600 nm of each sample was read and MIC was taken as the lowest antibiotic concentration inhibiting bacterial growth by greater than 90%.

E. coli (ATCC 25922) [5] = assay: MIC, wild type E. coli; assay type: cell-based; details: growth inhibition greater than 90%
Protocol: as §3

80S ribosome = assay: Fluorescence anisotropy binding to 80S ribosomes; set-up: species or system yeast (S. cerevisiae); details: competition with CRP, yeast ribosomes; read-out: Dissociation constant (KD) with 80S ribosome
Protocol: After establishing the lack of stereospecificity in the binding of aminoglycosides to the A-site RNA constructs (FIG. 9A-C) where the binding affinity, KD, is about 0.1 μM to about 100 μM, the stereospecificity of aminoglycoside binding to intact ribosomes was determined. Both yeast and E. coli ribosomes were prepared and aminoglycoside binding was measured using fluorescence anisotropy methods. For example, fluorescence anisotropy methods recited in Wang, Y., and Rando, R. R. Chem. Biol. (1995) 2, 281-290; and Wang, Y., Hamasaki, K., and Rando, R. R. Biochemistry (1997) 36,768-779. CRP was used as the binding probe. […] Binding data reported herein for aminoglycoside compounds with eukaryotic yeast ribosomes are similar to binding data for said aminoglycoside compounds with ribosoimes in bacteria and with eukaryotic A-site rRNA constructs.
5-Carboxytetramethylrhodamine-labeled paromomycin (CRP) and tobramycin (CRT) concentrations were determined spectroscopically at 550 nm using a molar extinction coefficient of 6.00×10 4 M −1 cm −1. Fluorescence anisotropy measurements were performed on a Perkin-Elmer LS-50B luminescence spectrometer equipped with a thermostat accurate to ±0.1° C. as indicated previously (Wang, Y., Hamasaki, K., & Rando, R. R. (1997) Biochemistry 36, 768-779). The tracer solution was excited at 550 nm and monitored at 580 nm. The integration time was 5 s. For every point, 6 measurements were taken, and their average values were used for calculation. Measurements were carried out in a buffer solution containing 150 mM NaCl, 5 mM KCl, 1 mM CaCl2, 1 mM MgCl2, and 20 mM HEPES (pH 7.5). Prior to measurements, RNA constructs were renatured by incubating in binding buffer {150 mM NaCl, 5 mM KCl, 1 mM CaCl2, 1 mM MgCl2, and 20 mM HEPES (pH 7.5)} for 3 minutes at 90° C. followed by slow cooling to 25° C.
Equation 1 was used for the determination of the dissociation constant (Kd) for the interactions between RNA or ribosome and CRP. A=A0+DA{(RNA)0+(CRP)0+Kd−({(RNA)0+(CRP)0+Kd}^2−4(RNA)0(CRP)0)½}/2 where A and A0 are the fluorescence anisotropy of CRP in the presence and absence of RNA, respectively, and DA is the difference between the fluorescence anisotropy of CRP in the presence of an extrapolated infinite concentration of RNA minus the fluorescence anisotropy in the absence of RNA. (RNA)0 and (CRP)0 are the initial concentrations of RNA and CRP, respectively.
Equation 2 is used for the calculation of the KD values in the competition binding assay. (aminoglycoside)0={KD(A−−A)/Kd(A−A0)+1}{(RNA)0−Kd(A−A0)/(A−−A)−(CRP)0(A−A0)/(A−−A)} where KD is the dissociation constant between the RNA and the aminoglycosides; (aminoglycoside)0 is the initial concentration of the aminoglycosides; AL is anisotropy of completely bound tracer. Both Kd and KD were determined by non-linear curve fitting using the equations described above, and are presented as mean values of three independent measurements.
The purification of yeast 80S ribosomes from S. cerevisiae strain YSB 758 was carried out according to the published procedure (Verschoor, A., Warner, J. R., Srivastava, S., Grassucci, R. A., & Frank, J. (1997) Nucl. Acid Res. 26, 655-661). S. cerevisiea YSB 758 were grown for 12 hrs at 30° C. in 2L of YPD medium, containing: 20 g bacto peptone, 20 g glucose, 10 g yeast extract and 0.15 g tryptophan per 1 L, pH 7.0. The cells were lysed by 5-10 cycles of 1 min vigorous shaking with glass beads with a vortex, followed by cooling on ice. Clarified cell extract (about 9 mL total, used in 6 portions in 1.5 mL aliqouts) was carefully loaded on top of 2 mL of a cushion, composed of 10% sucrose and 5% ammonium sulfate dissolved in buffer YR1 (20 mM HEPES pH=7.4, 16 mM magnesium chloride, 100 mM potassium chloride, 5 mM DTT, and 0.5 mM EDTA). The ribosomes were collected by centrifugation in Beckman TL100.3 rotor at 75000 rpm for 3 h. The supernatants were carefully discarded and ribosomes were collected in buffer YR1. […]

NCC1OC(OC2C(N)CC(N)C(O)C2O)C(N)C(O)C1O [L-Neamine]
Antibacterial activity against E. faecalis (E. faecalis): little to no antibacterial activity | IC50 [1]: 195 µM | Antibiotic activity in disk assay, kanamycin/neomycin resistant E. coli [2]: maintained antibiotic activity; also recorded: maintaines substantially the same level of activity | Antibiotic activity in disk assay, WT E. coli (E. coli (ATCC 25922) [3]): somewhat lower activity | Antibacterial activity against S. aureus (S. aureus): little to no antibacterial activity | Minimal inhibitory concentration (MIC), E. coli kan/neo resistant [4]: 2100 µM (≈ 677 µg/mL) | Minimal inhibitory concentration (MIC), E. coli (E. coli (ATCC 25922) [5]): 1300 µM (≈ 419 µg/mL) | Kd (80S ribosome): 6.06 ± 0.63 µM
